# Assay results from paper PMC8896685 (PLoS ONE, 2022).
# Numbered stars: 1 amine (or outer) side, 2 acyl side, 3 side chain; on linkers, the order of the positions; unused ones are H or OH. Square brackets hold non-standard residues; d marks the D form. Side chains are listed from the residue outwards. Peptide text beside a SMILES is read from it. * marks the point of attachment. C18 diacid = O=C(O)CCCCCCCCCCCCCCCCC(=O)*; γGlu = O=C(O)[C@H](CCC(=O)[*:2])N[*:1]; Desaminohistidyl = O=C(CCc1c[nH]cn1)*; Ac4c = NC1(C(=O)O)CCC1; AEEA = NCCOCCOCC(=O)O; Aib = CC(C)(N)C(=O)O
# Assays:
# Mouse GCGR = biological target: T1, Mouse GCGR (Mus musculus, UniProt Q61606); assay: Receptor binding, SPA competitive binding assay; conditions: SPA competitive binding on BHK cell membranes, [125I]-glucagon tracer, 1% species specific plasma, 2 h 30°C; value (95% CI)
# T1 construct: a plasmid encoding either the glucagon receptor or the GLP-1 receptor from the relevant species; expressed in transfected cells
# Protocol: The binding assay was performed on cell membranes in the presence of 1% (v/v) species-specific heparin-treated pooled plasma (Bioreclamation IVT, Westbury, NY) diluted in assay buffer (50 mM HEPES supplemented with 5 mM EGTA, 5 mM MgCl2, and 0.005% (v/v) Tween 20, pH7.4). […] Cells stably expressing an individual receptor of interest were grown at 5% CO2, 37°C in DMEM (supplemented with 10% FCS, 0.5 mg/ml G418 and 0.3 mg/ml hygromycin). Membrane preparations were made from cells harvested at approximately 80% confluence, washed and homogenized in 20 mM HEPES with 0.1 mM EDTA, pH 7.4. Protein concentration was determined, and the membranes were stored at -80°C until use. The membrane binding assay was performed in a 96-well OptiPlate (PerkinElmer) in a total volume of 200 μl. Test compounds were dissolved in 80% DMSO and further diluted in assay buffer. 50 μl of diluted plasma was added to the assay plate wells followed by addition of test compounds (25 μl), cell membranes (50 μl, 0.06 mg/ml), SPA beads (20 mg/ml in assay buffer) and radioligand (60,000 cpm/well, corresponding to 0.06 nM; 2200 Ci/mmol. Each assay plate was incubated for 2 h at 30°C, centrifuged at 1500 rpm for 10 minutes and counted in a TopCount NXT instrument (PerkinElmer).
# For the receptor binding assays, logIC50 values were calculated using non-linear regression analysis. The error estimation was reported as the 95% confidence interval. […] The calculations were performed in GraphPad Prism 6.4 (GraphPad, San Diego, CA) and error estimation was expressed as the 95% confidence interval. […] Averages, error estimation, ratios and plasma shifts were all calculated on logIC50 or logEC50 values and transformed to the anti-log values for reporting purposes.
# DIO mice [1] = assay: Subchronic effect on body weight, body composition and food intake in DIO mice; type: in vivo, mouse
# Text: Male C57Bl/6J mice were purchased from Jackson Lab (Bar Harbour, ME) or Taconic, (Denmark). Male Sprague Dawley rats were purchased from Taconic (Denmark). Lean animals were fed regular chow diet (Altromin 1324, Brogaarden, Denmark). Obese animals were fed a high-fat diet, 45% kcal from fat (D12492, Research Diets, New Brunswick, NJ) from the age of 4–6 weeks in order to obtain a diet induced obese (DIO) phenotype. Animals were housed under temperature and humidity-controlled conditions in a 12:12 hr light:dark cycle (lights on at 6 a.m.). Rats were housed three per cage during high fat feeding and were single housed five weeks prior to study. Mice were single housed, two per cage, with a partitioning wall where possible. All animals had ad libitum access to diet and water, except when fasted prior to experimental procedures. Animals were acclimatized to study conditions (energy expenditure cages, daily mock handling etc) at least one week prior to first dose. […] At the time of study, animals were 20–30 weeks old with a body weight of 45–50 g (DIO mice) or approximately 600 g (DIO rats).
# (§1) DIO mice received s.c. injections once daily for 4–5 weeks. Animals were dosed at different times of day to allow for assessment of glucose tolerance and other metabolic parameters at same time of day but at different time points in relation to dosing. […] Body composition was assessed in conscious animals by Magnetic Resonance (MR) scanning prior to initiation of treatment and at the end of the treatment period. Steady-state plasma parameters were assessed in non-fasted animals. Additional DIO mice (n = 4) were included for verification of 24-h peptide exposure in steady state. The mice received s.c. doses daily for 2 weeks (13 days) with 3 nmol/kg NN1177; 5 nmol/kg NN1151 or 5 nmol/kg NN1359, where after plasma sampled after t = 5 h (NN1177) or 6 h (NN1151, NN1359), 10 h (all co-agonists) and 24 h (all co-agonists) post-dosing was analysed for exposure.
# (§2) Analogues were tested for subchronic effect in two different set-ups. […] The Cmax and Cmin animals were included in separate treatment groups and evaluated head-to-head for glucose tolerance and additional metabolic parameters at the end of the treatment period. […] IPGTT was performed as described above, but additionally blood was sampled from vena facialis of conscious animals at t = 210 min relative to the administration of glucose for exposure analysis.
# (§3) IPGTT was performed as described above.
# All in vivo data are presented as mean ±SEM. […] For the comparison of NN1177, NN1151 and NN1359 on glucose tolerance, vehicle-subtracted values were used to enable comparison across studies.
# DIO mice [2] = assay: Subchronic effect on glucose tolerance in DIO mice (IPGTT at steady state); type: in vivo, mouse
# Protocol: Compound exposure was measured by Luminescence Oxygen Channeling Immunoassay (LOCI). […] The three reactants were combined with the analyte and formed a two-sited immuno-complex. Illumination of the complex released singlet oxygen […] from the donor beads. They were channeled into the acceptor beads and triggered a chemiluminescence response which was measured in an EnVision plate reader (PerkinElmer). The amount of light was proportional to the concentration of the analyte. As calibrators, a dilution line of the relevant analyte in rat/mouse plasma was included.
# Animals were fasted for 5–6 h prior to intraperitoneal (i.p.) injection of 2 g/kg glucose. Blood glucose was analysed on whole blood from the tail vein of conscious animals using a Biosen S-line glucose analyzer (EKF-diagonistic Gmbh, Barleben, Germany) by the glucose oxidase method, at basal and at t = 15, 30, 60, 90, 180 min post glucose administration.
# as §1, §2, §3
# [3] = steady state 5 weeks, 3 and 5 nmol/kg, Cmax (5 h post dosing), p<0.001
# [4] = steady state, after 3 weeks daily s.c. dosing, Cmax (5 h post dosing), p<0.001
# [5] = steady state, after 4 weeks daily s.c. dosing, Cmin (24 h post dosing)
# [6] = steady state, after 4 weeks daily s.c. dosing, Cmin (24 h post dosing), p<0.001
# T1 sequence (Q61606 27-485): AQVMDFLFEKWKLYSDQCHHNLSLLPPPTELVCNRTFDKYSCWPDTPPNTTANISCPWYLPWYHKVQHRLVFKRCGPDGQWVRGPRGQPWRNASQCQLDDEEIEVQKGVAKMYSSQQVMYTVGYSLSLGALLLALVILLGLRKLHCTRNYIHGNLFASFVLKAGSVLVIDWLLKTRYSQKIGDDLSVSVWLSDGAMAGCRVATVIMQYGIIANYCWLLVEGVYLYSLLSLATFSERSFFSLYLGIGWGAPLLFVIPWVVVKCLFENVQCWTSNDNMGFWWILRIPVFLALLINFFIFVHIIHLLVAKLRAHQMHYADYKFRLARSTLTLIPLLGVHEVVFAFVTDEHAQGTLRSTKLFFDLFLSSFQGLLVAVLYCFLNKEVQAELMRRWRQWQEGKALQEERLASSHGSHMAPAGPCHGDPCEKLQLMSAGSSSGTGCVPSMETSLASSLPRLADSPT
smiles,measurement,setting,value
CC(C)C[C@H](NC(=O)[C@H](Cc1ccc(O)cc1)NC(=O)[C@H](CCCCN)NC(=O)[C@H](CO)NC(=O)[C@H](CC(C)C)NC(=O)[C@H](CC(=O)O)NC(=O)[C@H](CO)NC(=O)[C@@H](NC(=O)[C@H](Cc1ccccc1)NC(=O)[C@@H](NC(=O)CNC(=O)[C@H](CCC(N)=O)NC(=O)C(C)(C)NC(=O)[C@@H](N)Cc1c[nH]cn1)[C@@H](C)O)[C@@H](C)O)C(=O)N[C@@H](CCC(=O)O)C(=O)N[C@@H](CO)C(=O)N[C@@H](CCCCN)C(=O)N[C@@H](CCCNC(=N)N)C(=O)N[C@@H](C)C(=O)N[C@@H](CCCNC(=N)N)C(=O)N[C@@H](CCC(=O)O)C(=O)N[C@@H](Cc1ccccc1)C(=O)N[C@H](C(=O)N[C@@H](CCC(N)=O)C(=O)N[C@@H](Cc1c[nH]c2ccccc12)C(=O)N[C@@H](CC(C)C)C(=O)N[C@@H](CC(C)C)C(=O)N[C@@H](CCCCNC(=O)CC[C@H](NC(=O)CC[C@H](NC(=O)[C@H](CO)NC(=O)[C@H](CCC(=O)O)NC(=O)[C@H](CO)NC(=O)CC[C@H](NC(=O)CC[C@H](NC(=O)CCCCCCCCCCCCCCCCC(=O)O)C(=O)O)C(=O)O)C(=O)O)C(=O)O)C(=O)N[C@H](C(N)=O)[C@@H](C)O)C(C)C [NN1177] (H-H[Aib]QGTFTSDLSKYLESKRAREFVQWLLK([γGlu-γGlu-Ser-Glu-Ser-γGlu-γGlu-C18 diacid])T-NH2),IC50,Mouse GCGR,0.29 nM
same,Body weight reduction,"DIO mice [1]; 3–5 nmol/kg s.c. once daily, 5 weeks",22–33%
same,Glucose tolerance (IPGTT) vs vehicle,"DIO mice [2]; steady state 5 weeks, 3 nmol/kg, Cmin (24 h post dosing), p<0.001",impaired
same,Glucose tolerance (IPGTT) vs vehicle,"DIO mice [2]; steady state 5 weeks, 5 nmol/kg, Cmin (24 h post dosing)",at the level of vehicle
same,Basal blood glucose vs vehicle,DIO mice [2]; [3],improved
same,Glucose tolerance (IPGTT) vs vehicle,DIO mice [2]; [3],improved
same,Basal blood glucose vs vehicle,"DIO mice [2]; steady state 5 weeks, Cmin (24 h post dosing), p<0.001",improved
CC(C)C[C@H](NC(=O)[C@H](CC(C)C)NC(=O)[C@H](Cc1c[nH]c2ccccc12)NC(=O)[C@H](CCC(N)=O)NC(=O)[C@@H](NC(=O)[C@H](Cc1ccccc1)NC(=O)[C@H](CCC(=O)O)NC(=O)[C@H](CCCNC(=N)N)NC(=O)[C@H](C)NC(=O)[C@H](C)NC(=O)[C@H](CCCNC(=N)N)NC(=O)[C@H](CO)NC(=O)[C@H](CC(=O)O)NC(=O)[C@H](CC(C)C)NC(=O)[C@H](Cc1ccc(O)cc1)NC(=O)[C@H](CCCCN)NC(=O)[C@H](CO)NC(=O)[C@H](CC(C)C)NC(=O)[C@H](CC(=O)O)NC(=O)[C@H](CO)NC(=O)[C@@H](NC(=O)[C@H](Cc1ccccc1)NC(=O)[C@@H](NC(=O)CNC(=O)[C@H](CCC(=O)O)NC(=O)C(C)(C)NC(=O)[C@@H](N)Cc1c[nH]cn1)[C@@H](C)O)[C@@H](C)O)C(C)C)C(=O)N[C@@H](CC(N)=O)C(=O)N[C@@H](CCCCNC(=O)CC[C@H](NC(=O)CC[C@H](NC(=O)COCCOCCNC(=O)COCCOCCNC(=O)CC[C@H](NC(=O)CCCCCCCCCCCCCCCCC(=O)O)C(=O)O)C(=O)O)C(=O)O)C(N)=O [GLP-1 reference] (H-H[Aib]EGTFTSDLSKYLDSRAAREFVQWLLNK([γGlu-γGlu-AEEA-AEEA-γGlu-C18 diacid])-NH2),Body weight reduction,"DIO mice [1]; 5 nmol/kg s.c. once daily, 4–5 weeks, p<0.001",10%-17%
CC[C@H](C)[C@H](NC(=O)[C@H](Cc1ccccc1)NC(=O)[C@H](CCC(=O)O)NC(=O)[C@H](CCCNC(=N)N)NC(=O)[C@H](C)NC(=O)[C@H](C)NC(=O)[C@H](CCC(N)=O)NC(=O)[C@H](CCC(=O)O)NC(=O)[C@H](CCC(=O)O)NC(=O)[C@H](CC(C)C)NC(=O)[C@H](Cc1ccc(O)cc1)NC(=O)[C@H](CCCCN)NC(=O)[C@H](CO)NC(=O)[C@@H](NC(=O)[C@H](CC(=O)O)NC(=O)[C@H](CO)NC(=O)[C@@H](NC(=O)[C@H](Cc1ccccc1)NC(=O)[C@@H](NC(=O)CNC(=O)[C@H](Cc1c[nH]cn1)NC(=O)C(C)(C)NC(=O)CCc1c[nH]cn1)[C@@H](C)O)[C@@H](C)O)C(C)C)C(=O)N[C@@H](C)C(=O)N[C@@H](Cc1c[nH]c2ccccc12)C(=O)N[C@@H](CC(C)C)C(=O)N[C@@H](CC(C)C)C(=O)N[C@@H](CCCCNC(=O)COCCOCCNC(=O)COCCOCCNC(=O)CC[C@H](NC(=O)CC[C@H](NC(=O)CCCCCCCCCCCCCCCCC(=O)O)C(=O)O)C(=O)O)C(=O)N[C@H](C(N)=O)[C@@H](C)O [NN1359] (Desaminohistidyl-[Aib]HGTFTSDVSKYLEEQAAREFIAWLLK([AEEA-AEEA-γGlu-γGlu-C18 diacid])T-NH2),IC50,Mouse GCGR,14 nM
same,Body weight loss,"DIO mice [1]; 1–30 nmol/kg s.c. once daily, 4 weeks, plateau during last weeks",10–30%
same,Glucose tolerance (IPGTT) vs vehicle,DIO mice [2]; [4],significantly improved
same,Basal blood glucose vs vehicle,DIO mice [2]; [5],significantly improved
same,Glucose tolerance (IPGTT) vs vehicle,DIO mice [2]; [6],significantly improved
CC(C)C[C@H](NC(=O)[C@H](CC(=O)O)NC(=O)[C@H](CC(C)C)NC(=O)[C@H](Cc1ccc(O)cc1)NC(=O)[C@H](CCCCN)NC(=O)[C@H](CO)NC(=O)[C@H](CC(C)C)NC(=O)[C@H](CC(=O)O)NC(=O)[C@H](CO)NC(=O)[C@@H](NC(=O)[C@H](Cc1ccccc1)NC(=O)[C@@H](NC(=O)CNC(=O)[C@H](CCC(N)=O)NC(=O)C1(NC(=O)[C@@H](N)Cc2c[nH]cn2)CCC1)[C@@H](C)O)[C@@H](C)O)C(=O)N[C@@H](CCCNC(=N)N)C(=O)N[C@@H](CCCNC(=N)N)C(=O)N[C@@H](C)C(=O)N[C@@H](CCCNC(=N)N)C(=O)N[C@@H](CC(=O)O)C(=O)N[C@@H](Cc1ccccc1)C(=O)N[C@H](C(=O)N[C@@H](CCC(N)=O)C(=O)N[C@@H](Cc1c[nH]c2ccccc12)C(=O)N[C@@H](CC(C)C)C(=O)N[C@@H](CC(C)C)C(=O)N[C@@H](CCCCNC(=O)CC[C@H](NC(=O)CC[C@H](NC(=O)COCCOCCNC(=O)COCCOCCNC(=O)CC[C@H](NC(=O)CC[C@H](NC(=O)CCCCCCCCCCCCCCCCC(=O)O)C(=O)O)C(=O)O)C(=O)O)C(=O)O)C(=O)N[C@H](C(N)=O)[C@@H](C)O)C(C)C [NN1151] (H-H[Ac4c]QGTFTSDLSKYLDLRRARDFVQWLLK([γGlu-γGlu-AEEA-AEEA-γGlu-γGlu-C18 diacid])T-NH2),Effect on body weight,"DIO mice [1]; 1 nmol/kg s.c. once daily, 4 weeks",No effect
same,Effect on body weight / tolerated weight loss,"DIO mice [1]; 10 and 30 nmol/kg s.c. once daily, maximum ethically tolerated weight loss reached",majority of mice had to be terminated prematurely
same,Glucose tolerance (IPGTT) vs vehicle,DIO mice [2]; [4],improved
same,Basal blood glucose vs vehicle,DIO mice [2]; [5],at the level of vehicle treated animals
same,Glucose tolerance (IPGTT) vs vehicle,DIO mice [2]; [6],significantly impaired
